Test results from patent US20140005119A1, “COMPOSITIONS AND METHODS FOR INHIBITING THE ACTIVITY OF P110a MUTANT PROTEINS” (Case Western Reserve University, priority 2012, published 2014).
Each block holds one substance with its values, some of them ahead of it. Bridges are numbered along the chain shown (N, C = ends). Where no end group is shown, it is not given here. [ ]: non-standard residue; d: D form. S5 = C=CCCC[C@](C)(N)C(=O)O

Legend:
[1] = molecular target: T1, IRS1-p110α E545K interaction in DLD1 cells (Homo sapiens, UniProt P35568); experiment: Co-IP after peptide added to culture medium of p110α E545K 3×FLAG KI DLD1 cells; assay type: cell-based; set-up: dose or concentration left out as unconfirmed; settings: peptide added to cell culture medium for 16 hr
T1 construct: endogenous in cells; host or cells: DLD1 p110α E545K 3×FLAG knock-in cells (rAAV gene targeting of the endogenous allele)
T1 sequence (P35568 1-1242): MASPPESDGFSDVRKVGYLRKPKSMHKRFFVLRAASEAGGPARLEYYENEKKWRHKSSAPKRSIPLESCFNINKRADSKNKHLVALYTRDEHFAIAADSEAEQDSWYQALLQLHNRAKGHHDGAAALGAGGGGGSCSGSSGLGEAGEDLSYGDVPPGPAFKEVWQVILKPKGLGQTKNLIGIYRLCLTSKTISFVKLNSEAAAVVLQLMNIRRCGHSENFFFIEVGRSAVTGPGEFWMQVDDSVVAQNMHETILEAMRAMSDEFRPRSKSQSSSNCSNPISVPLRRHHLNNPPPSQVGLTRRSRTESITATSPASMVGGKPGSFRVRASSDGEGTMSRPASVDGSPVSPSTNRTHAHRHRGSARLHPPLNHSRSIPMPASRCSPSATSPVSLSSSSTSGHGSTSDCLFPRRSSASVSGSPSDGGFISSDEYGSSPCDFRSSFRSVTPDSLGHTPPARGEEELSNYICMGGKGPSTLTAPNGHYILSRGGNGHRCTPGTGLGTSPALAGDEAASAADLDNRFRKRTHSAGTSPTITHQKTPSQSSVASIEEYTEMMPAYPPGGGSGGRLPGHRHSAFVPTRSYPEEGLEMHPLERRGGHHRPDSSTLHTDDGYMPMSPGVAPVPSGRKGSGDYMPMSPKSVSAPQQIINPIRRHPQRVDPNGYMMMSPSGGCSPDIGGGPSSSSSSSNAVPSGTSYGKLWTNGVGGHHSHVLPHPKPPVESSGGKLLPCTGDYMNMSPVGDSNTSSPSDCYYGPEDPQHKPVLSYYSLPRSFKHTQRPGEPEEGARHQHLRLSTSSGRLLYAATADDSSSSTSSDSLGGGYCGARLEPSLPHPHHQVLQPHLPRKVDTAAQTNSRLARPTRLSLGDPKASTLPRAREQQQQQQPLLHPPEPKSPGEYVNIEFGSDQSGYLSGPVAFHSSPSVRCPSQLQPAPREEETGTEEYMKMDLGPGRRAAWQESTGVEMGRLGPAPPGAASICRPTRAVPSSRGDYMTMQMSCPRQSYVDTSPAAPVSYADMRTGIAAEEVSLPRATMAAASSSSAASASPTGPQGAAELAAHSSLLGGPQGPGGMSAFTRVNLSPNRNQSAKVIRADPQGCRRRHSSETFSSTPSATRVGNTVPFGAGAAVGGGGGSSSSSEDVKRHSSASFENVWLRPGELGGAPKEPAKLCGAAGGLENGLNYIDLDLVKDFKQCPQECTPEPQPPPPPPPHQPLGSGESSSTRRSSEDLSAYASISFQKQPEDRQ
Protocol: (§1) FIG. 4(A-F) illustrate: (A) Schematic diagram of linear and stapled WT and mutant peptides derived from p110α (SEQ ID NOs: 5, 6, 7 and 8). (B) Immunoblots of cell lysates immunoprecipitated with beads conjugated with anti-FLAG antibodies and then blotted with the indicated antibodies. Linear or stapled WT and mutant peptide were added into culture medium of the p110α E545K 3×FLAG KI cells for 16 hr. (C) Immunoblots of cell lysates immunoprecipitated with anti-p110α antibodies and then blotted with the indicated antibodies. Vaco481 CRC cells were treated with the stapled mutant peptides at the indicated concentration. (D) Immunoblots of cell lysates blotted with the indicated antibodies. The indicated cell lines were treated with the stapled mutant peptide. (E) Immunoblots of cell lysates blotted with the indicated antibodies. The indicated cancer cell lines were treated or untreated with stapled WT or mutant peptide at 50 mM for 2 hr. (F) Immunoblots of cell lysates were blotted with the indicated antibodies. The indicated cancer cell lines were treated with or without 50 mM of stapled mutant peptide for 2 hr.
For Co-immunoprecipitation (Co-IP), cells were harvested, washed with PBS, and then lysed in IP buffer (50 mMTris [pH 7.4], 150 mMNaCl, 5 mMEDTA [pH 8.0], 0.5% NP40, 1 mM PMSF, complete Protease Inhibitor Cocktail tablet [Roche]; supplemented with phosphatase inhibitors [1 mM Na3VO4, 20 mM NaF, 0.1 mM b-glycerophosphate, 20 mM sodium pyrophosphate] when necessary). For immunoblotting (IB) of phospho-specific proteins, unless stated otherwise, cells were lysed in urea buffer (100 mM NaH2PO4, 10 mM Tris-HCl, 8 M Urea, 1 mM Na3VO4, 20 mM NaF, 0.1 mM β-glycerophosphate, 20 mM sodium pyrophosphate, supplemented with complete Protease Inhibitor Cocktail tablet [Roche], pH 8.0). Lysates were then cleared by centrifugation (14,000 rpm, 10 min) and protein concentration in supernatants was determined with a BCA protein assay kit (Pierce, Rockford, Ill.). Equal amounts of total protein were used for IP or IB.

[2] = test system: DLD1 xenograft tumor (p110α E545K); experiment: Peptide treatment of DLD1 xenograft tumors in athymic nude mice; assay type: in vivo; settings: intratumoral 250 μg daily for 14 days, versus water control
Protocol: FIGS. 5(A-D) illustrate: (A) An athymic nude mouse with a xenograft Tumor growth of cancer cells harboring the p110α E545K Mutation (A and B) and treated with Stapled p110α E545K Mutant Peptide. Five million DLD1 cells were injected subcutaneously and bilaterally into athymic nude mice. Once the xenograft tumors reach 100-150 mm^3, the left side tumors were injected with the stapled WT peptide and the right side tumors were injected with the stapled mutant peptide daily for 14 days. Ten tumors of similar size in five other athymic nude mice were injected with an equal amount of water as controls. Tumor sizes were measured every 2 days. Representative pictures of mice injected with the peptides are shown in (A) and quantitative measurements are shown in (B). Arrows indicate tumors treated with the stapled WT peptide and the red arrows indicate tumors treated with the stapled mutant peptide. The p value was calculated using ANOVA analysis. […] All quantitative measurements are plotted as mean±SEM.
Animal experiments were approved by the Case Western Reserve University Animal Care and Use Committee. […] Tumor volume was measured with electronic calipers, and volumes were calculated as length 3 width^2/2.
Five-week-old male athymic nude mice were injected with 5 million cells subcutaneously and bilaterally. […] The tumor sizes were measured every 2 days.

[3] = test system: p85 and IRS1; experiment: Immunoblot of treated cell lines, p85 and IRS1 levels; assay type: cell-based, human
Protocol: as §1, with “The indicated cancer cell lines were treated or untreated with stapled WT or mutant peptide at 50 mM for 2 hr. (F) Immunoblots of cell lysates were blotted with the indicated antibodies. The indicated cancer cell lines were treated with or without 50 mM of stapled mutant peptide for 2 hr.” left out
For Co-immunoprecipitation (Co-IP), cells were harvested, washed with PBS, and then lysed in IP buffer (50 mMTris [pH 7.4], 150 mMNaCl, 5 mMEDTA [pH 8.0], 0.5% NP40, 1 mM PMSF, complete Protease Inhibitor Cocktail tablet [Roche]; supplemented with phosphatase inhibitors [1 mM Na3VO4, 20 mM NaF, 0.1 mM b-glycerophosphate, 20 mM sodium pyrophosphate] when necessary). […] Lysates were then cleared by centrifugation (14,000 rpm, 10 min) and protein concentration in supernatants was determined with a BCA protein assay kit (Pierce, Rockford, Ill.). […]

[4] = test system: HCT116 xenograft tumor (p110α H1047R); experiment: Peptide treatment of HCT116 xenograft tumors in athymic nude mice; assay type: in vivo; settings: intratumoral 250 μg daily for 14 days

disruption of IRS1-p110α E545K interaction in DLD1 cells [1]: effectively disrupted
Substance: H2N-SEITKQEK-D^549-FLW-S^553-HRHYC-COOH [stapled mutant peptide]
DLD1 xenograft tumor growth [2]: significantly slowed
levels of p85 and IRS1 [3]: did not affect
xenograft tumor growth of HCT116 CRC cells [4]: neither the stapled WT nor the stapled mutant peptide inhibited

Substance: H2N-SEITEQEKD^549-FLW-S^553-HRHYC-COOH (SEITEQEK[S5]FLW[S5]HRHYC; staple 9-13; not fully specified (N-terminus, C-terminus); printed as H2N-SEITEQEKD549-FLW-S553-HRHYC-COOH; listed as Homo sapiens) [stapled WT peptide, stapled wild-type p110α counterpart of the stapled mutant peptide, used as control, reference compound]
disruption of IRS1-p110α E545K interaction in DLD1 cells [1]: neither the linear mutant peptide nor the stapled WT peptide affected the interaction
DLD1 xenograft tumor growth [2]: did not inhibit
xenograft tumor growth of HCT116 CRC cells [4]: neither the stapled WT nor the stapled mutant peptide inhibited
